Measured values as given in PMC5253108 (European journal of medicinal chemistry, 2016).

What was measured:
[1] = tested on: HEK293 kidney cells; assay type: cell-based; conditions: 48 hours, Cell-Titer Glo
[2] = In vitro liver microsomal stability; assay type: in vitro ADME, mouse
[3] = tested on: BEAS2B lung epithelial cells; test: In vitro cytotoxicity, Cell-Titer Glo viability, BEAS2B; assay type: cell-based; conditions: 48 hours
[4] = tested on: HepG2 liver cells; test: In vitro cytotoxicity, Cell-Titer Glo viability, HepG2; assay type: cell-based; conditions: 48 hours
[5] = tested on: Swiss Webster mice; test: Rotarod assay of sensorimotor coordination in mice; conditions: for sensorimotor impairment on rotarod: 40 mg/kg i.p., Swiss Webster mice, 10, 30 and 60 min

SMILES	Toxicity in HEK293 (Kidney) LD50 [1]	loss at 1 h in mouse liver microsomes [2]	Toxicity in BEAS 2B (Lung) LD50 [3]	Toxicity in HEPG2 (Liver) LD50 [4]	sensorimotor impairment on rotarod [5]	metabolically converted after one hour ([2]; after one hour, corresponds to mouse liver microsome values of Table 1)	toxicity in HEK293 cells [1]	sensorimotor impairment on rotarod, positive control ([5]; 5 mg/kg i.p., Swiss Webster mice)
[2H]C([2H])([2H])Oc1ccc2c(c1)C(=O)N1CCC[C@H]1c1c(C(=O)OCC)ncn1-2 [Compound 5a]	>400 µM	less than 20%	>400 µM	>400 µM	–	–	–	–
CCOC(=O)c1ncn2c1[C@@H]1CCCN1C(=O)c1cc(O)ccc1-2 [Compound 6]	–	less than 20%	>400 µM	>400 µM	did not induce sensorimotor impairment	–	–	–
[2H]C([2H])([2H])Oc1ccc2c(c1)C(=O)N1CCC[C@H]1c1c(C(=O)OC(C)(C)C)ncn1-2 [Compound 7a]	>100 µM	–	>200 µM	>400 µM	–	–	–	–
CC(C)(C)OC(=O)c1ncn2c1[C@@H]1CCCN1C(=O)c1cc(O)ccc1-2 [Compound 8]	–	–	>400 µM	>400 µM	–	–	–	–
[2H]C([2H])([2H])Oc1ccc2c(c1)C(=O)N1CCC[C@H]1c1c(C(=O)O)ncn1-2 [Compound 9a]	>400 µM	less than 20%	>400 µM	>400 µM	did not induce sensorimotor impairment	–	–	–
COC(=O)c1ncn2c1[C@@H]1CCCN1C(=O)c1cc(OC)ccc1-2 [Compound 10, (S)-Methyl-7-methoxy-9-oxo-11,12,13,13a-tetrahydro-9H-benzo[e]imidazo[5,1-c]pyrrolo[1,2-a][1,4]diazepine-1-carboxylate]	>400 µM	–	>400 µM	>400 µM	did not induce any sensorimotor impairment	30%	–	–
CNC(=O)c1ncn2c1[C@@H]1CCCN1C(=O)c1cc(OC)ccc1-2 [Compound 15]	>100 µM	–	>400 µM	>400 µM	most severe motor impairment	–	–	–
[2H]C([2H])([2H])Oc1ccc2c(c1)C(=O)N1CCC[C@H]1c1c(C(=O)NC)ncn1-2 [Compound 15a]	>100 µM	–	>400 µM	>400 µM	–	–	–	–
CCNC(=O)c1ncn2c1[C@@H]1CCCN1C(=O)c1cc(OC)ccc1-2 [Compound 17]	>400 µM	–	>400 µM	>400 µM	–	–	–	–
[2H]C([2H])([2H])Oc1ccc2c(c1)C(=O)N1CCC[C@H]1c1c(C(=O)NCC)ncn1-2 [Compound 17a]	–	less than 20%	–	>400 µM	did not induce sensorimotor impairment	–	–	–
COc1ccc2c(c1)C(=O)N1CCC[C@H]1c1c(C(=O)NC(C)(C)C)ncn1-2 [Compound 18]	>200 µM	–	>400 µM	>400 µM	–	–	–	–
[2H]C([2H])([2H])Oc1ccc2c(c1)C(=O)N1CCC[C@H]1c1c(C(=O)NC(C)(C)C)ncn1-2 [Compound 18a]	–	–	–	>400 µM	most severe motor impairment	–	–	–
[2H]C([2H])([2H])Oc1ccc2c(c1)C(=O)N1CCC[C@H]1c1c(C(=O)NC3CC3)ncn1-2 [Compound 19a]	–	less than 20%	–	>400 µM	–	–	some toxicity	–
CN1C(=O)CN=C(c2ccccc2)c2cc(Cl)ccc21 [diazepam, reference compound]	–	–	–	–	–	–	–	greatest impairment of sensorimotor steadiness at 10 minutes
